Each structure is given as a SMILES string. “And” between values parts separate entries of the source, which are not always exact repeats. Equal values may be shown once. Results filed as inconclusive are left out.

The test system of this experiment is mice, ADJ-PC-20 plasma cell tumor sc, T/C %. Put plainly: NCI In Vivo Anticancer Drug Screen. Data for tumor model ADJ-PC-20 Plasma Cell (subcutaneous) in unknown mice. To be noted: endpoint: mean tumor weight, higher = larger tumour. As for the experimental part: The antitumor activity of compounds was measured in mice bearing transplantable tumors. Survival or tumor size were measured and the results are expressed as the measurement made in the treated group (T) divided by the measurement made in the vehicle treated control group (C). The tumor model used in this assay is ADJ-PC-20 Plasma Cell (subcutaneous) in unknown mice

Setting [1] is: dose: 0.25 mg/kg/injection, schedule: Q01DX010 (ip), vehicle: carboxymethylcellulose (CMC).
Setting [2] is: dose: 125.0 micrograms/kg/injection, schedule: Q01DX010 (ip), vehicle: carboxymethylcellulose (CMC).
[3] abbreviates: dose: 6.25 mg/kg/injection, schedule: Q01DX010 (ip), vehicle: carboxymethylcellulose (CMC).
[4] abbreviates: dose: 12.5 mg/kg/injection, schedule: Q01DX010 (ip), vehicle: carboxymethylcellulose (CMC).
[5] abbreviates: dose: 25.0 mg/kg/injection, schedule: Q01DX010 (ip), vehicle: carboxymethylcellulose (CMC).
The mark [6] stands for this setting: dose: 7.5 mg/kg/injection, schedule: Q01DX010 (ip), vehicle: carboxymethylcellulose (CMC).
Where [7] appears, read: dose: 25.0 mg/kg/injection, schedule: Q01DX010 (ip), vehicle: water.
[8] abbreviates: dose: 3.1 mg/kg/injection, schedule: Q01DX010 (ip), vehicle: carboxymethylcellulose (CMC).
Where [9] appears, read: dose: 50.0 mg/kg/injection, schedule: Q01DX010 (ip), vehicle: carboxymethylcellulose (CMC).

With `O[C@H](CN1CC1)[C@@H](O)CN1CC1`, the T/C is 25 % of control under setting [1]; 103 % of control (dose: 16.0 micrograms/kg/injection, schedule: Q01DX010 (ip), vehicle: carboxymethylcellulose (CMC)); 151 % of control (dose: 31.0 micrograms/kg/injection, schedule: Q01DX010 (ip), vehicle: carboxymethylcellulose (CMC)); 55 % of control (dose: 63.0 micrograms/kg/injection, schedule: Q01DX010 (ip), vehicle: carboxymethylcellulose (CMC)); 66 % of control under setting [2].

As to `CC(=O)N(C)C`, the T/C (dose: 250.0 mg/kg/injection, schedule: Q01DX010 (ip), vehicle: saline) was 60 % of control; the T/C (dose: 500.0 mg/kg/injection, schedule: Q01DX010 (ip), vehicle: saline) is 75 % of control; the T/C (dose: 1000.0 mg/kg/injection, schedule: Q01DX010 (ip), vehicle: saline) is 51 % of control.

Consider `Nc1ncnc2[nH]ncc12`, for which the T/C runs as follows: under setting [3], 108 % of control; under setting [4], 87 % of control; under setting [5], 22 % of control.

Turning to `N#[N+]c1cnc([O-])[nH]c1=O`, the T/C reads like this: (dose: 5.0 mg/kg/injection, schedule: Q01DX010 (ip), vehicle: carboxymethylcellulose (CMC)) 99 % of control; (dose: 10.0 mg/kg/injection, schedule: Q01DX010 (ip), vehicle: carboxymethylcellulose (CMC)) 90 % of control.

`Oc1cc(CN(CCCl)CCCl)c(O)cc1CN(CCCl)CCCl`: the T/C is 62 % of control (dose: 0.22 mg/kg/injection, schedule: Q01DX010 (sc), vehicle: steriod suspending solution); 69 % of control (dose: 0.45 mg/kg/injection, schedule: Q01DX010 (sc), vehicle: steriod suspending solution); 76 % of control (dose: 0.9 mg/kg/injection, schedule: Q01DX010 (sc), vehicle: steriod suspending solution); 28 % of control (dose: 1.8 mg/kg/injection, schedule: Q01DX010 (sc), vehicle: steriod suspending solution).

For the compound `CC(=O)OCC1OC(n2ncc(=O)[nH]c2=O)C(OC(C)=O)C1OC(C)=O` (stereo unspecified), the T/C reads like this: (dose: 125.0 mg/kg/injection, schedule: Q01DX010 (ip), vehicle: other) 55 % of control; (dose: 250.0 mg/kg/injection, schedule: Q01DX010 (ip), vehicle: other) 58 % of control; (dose: 500.0 mg/kg/injection, schedule: Q01DX010 (ip), vehicle: other) 48 % of control.

For the compound `CCCCCCCCCCCCNCCCCCCCCCCCC`, the T/C runs as follows: (dose: 0.9 mg/kg/injection, schedule: Q01DX010 (ip), vehicle: carboxymethylcellulose (CMC)) 109 % of control; (dose: 1.8 mg/kg/injection, schedule: Q01DX010 (ip), vehicle: carboxymethylcellulose (CMC)) 109 % of control; (dose: 3.7 mg/kg/injection, schedule: Q01DX010 (ip), vehicle: carboxymethylcellulose (CMC)) 98 % of control; under setting [6], 88 % of control and 110 % of control.

For `N[C@@H](Cc1ccc(N(CCCl)CCCl)cc1)C(=O)O`, the T/C by setting is: (dose: 0.3 mg/kg/injection, schedule: Q01DX010 (ip), vehicle: saline) 48 % of control; (dose: 0.63 mg/kg/injection, schedule: Q01DX010 (ip), vehicle: saline) 75 % of control; (dose: 1.25 mg/kg/injection, schedule: Q01DX010 (ip), vehicle: saline) 52 % of control.

`O=c1cnn(C2OC(CO)C(O)C2O)c(=O)[nH]1` (stereo unspecified): the T/C reads like this: (dose: 31.0 mg/kg/injection, schedule: Q01DX011 (ip), vehicle: water) 51 % of control; (dose: 62.5 mg/kg/injection, schedule: Q01DX011 (ip), vehicle: water) 52 % of control; (dose: 125.0 mg/kg/injection, schedule: Q01DX010 (ip), vehicle: water) 41 % of control; (dose: 125.0 mg/kg/injection, schedule: Q01DX011 (ip), vehicle: water) 69 % of control; (dose: 250.0 mg/kg/injection, schedule: Q01DX010 (ip), vehicle: water) 49 % of control; (dose: 250.0 mg/kg/injection, schedule: Q01DX011 (ip), vehicle: water) 30 % of control.

Consider `Cc1cc(N(CCCl)CCCl)ccc1N=Nc1ccccc1C(=O)O`, for which the T/C (dose: 0.95 mg/kg/injection, schedule: Q01DX010 (ip), vehicle: carboxymethylcellulose (CMC)) was 60 % of control; the T/C (dose: 1.9 mg/kg/injection, schedule: Q01DX010 (ip), vehicle: carboxymethylcellulose (CMC)) is 56 % of control; the T/C (dose: 3.8 mg/kg/injection, schedule: Q01DX010 (ip), vehicle: carboxymethylcellulose (CMC)) was 38 % of control; the T/C under setting [6] is 25 % of control.

On to `COc1cc2c(c(OC)c1OC)-c1ccc(OC)c(=O)cc1[C@@H](NC(C)=O)CC2`, for which the T/C runs as follows: (dose: 8.0 micrograms/kg/injection, schedule: Q01DX010 (ip), vehicle: saline) 99 % of control; (dose: 16.0 micrograms/kg/injection, schedule: Q01DX010 (ip), vehicle: saline) 114 % of control; (dose: 31.0 micrograms/kg/injection, schedule: Q01DX010 (ip), vehicle: saline) 105 % of control.

As for `COS(C)(=O)=O`, the T/C under setting [7] was 110 % of control; the T/C (dose: 50.0 mg/kg/injection, schedule: Q01DX010 (ip), vehicle: water) was 82 % of control; the T/C (dose: 100.0 mg/kg/injection, schedule: Q01DX010 (ip), vehicle: water) was 42 % of control.

For `C[N+](C)(C)c1ncnc2nc[nH]c12`, the T/C reads like this: (dose: 0.8 mg/kg/injection, schedule: Q01DX010 (ip), vehicle: carboxymethylcellulose (CMC)) 70 % of control; (dose: 1.6 mg/kg/injection, schedule: Q01DX010 (ip), vehicle: carboxymethylcellulose (CMC)) 59 % of control; under setting [8], 69 % of control; (dose: 6.3 mg/kg/injection, schedule: Q01DX010 (ip), vehicle: carboxymethylcellulose (CMC)) 70 % of control; under setting [4], 36 % of control; under setting [5], 52 % of control. The T/C under setting [9] was 6 % of control.

As to `CN(C)c1ccc(Nc2c3ccccc3nc3ccccc23)cc1`, the T/C is 88 % of control under setting [3]; 115 % of control under setting [5]; 67 % of control (dose: 100.0 mg/kg/injection, schedule: Q01DX010 (ip), vehicle: carboxymethylcellulose (CMC)).

For `Nc1nc(=S)c2[nH]cnc2[nH]1`, the T/C reads like this: (dose: 0.12 mg/kg/injection, schedule: Q01DX010 (ip), vehicle: carboxymethylcellulose (CMC)) 112 % of control; under setting [1], 39 % of control and 62 % of control; (dose: 0.5 mg/kg/injection, schedule: Q01DX010 (ip), vehicle: carboxymethylcellulose (CMC)) 9 % of control; (dose: 62.0 micrograms/kg/injection, schedule: Q01DX010 (ip), vehicle: carboxymethylcellulose (CMC)) 52 % of control; under setting [2], 23 % of control; (dose: 250.0 micrograms/kg/injection, schedule: Q01DX010 (ip), vehicle: carboxymethylcellulose (CMC)) 14 % of control.

For `CN(C)c1ccc(/C=C\c2ccnc3ccccc23)cc1`, the T/C is, setting by setting: (dose: 6.3 mg/kg/injection, schedule: Q01DX010 (ip), vehicle: water) 70 % of control; (dose: 12.5 mg/kg/injection, schedule: Q01DX010 (ip), vehicle: water) 52 % of control; under setting [7], 48 % of control; (dose: 25.0 mg/kg/injection, schedule: Q01DX011 (ip), vehicle: water) 92 % of control.

For the compound `CCCCNc1ncnc2c1cnn2C`, the T/C is 94 % of control under setting [8], 122 % of control under setting [4], 96 % of control under setting [5] and 109 % of control under setting [9].

For `C[C@H]1C(=O)O[C@@H]2CCN3CC=C(COC(=O)[C@](C)(O)[C@@]1(C)O)[C@H]23`, the T/C reads like this: (dose: 3.75 mg/kg/injection, schedule: Q01DX010 (ip), vehicle: carboxymethylcellulose (CMC)) 86 % of control; under setting [6], 56 % of control; (dose: 15.0 mg/kg/injection, schedule: Q01DX010 (ip), vehicle: carboxymethylcellulose (CMC)) 30 % of control; (dose: 30.0 mg/kg/injection, schedule: Q01DX010 (ip), vehicle: carboxymethylcellulose (CMC)) 36 % of control and 44 % of control; (dose: 60.0 mg/kg/injection, schedule: Q01DX010 (ip), vehicle: carboxymethylcellulose (CMC)) 6 % of control and 17 % of control.

Regarding `NC(Cc1ccc(N(CCCl)CCCl)cc1)C(=O)O` (stereo unspecified), the T/C reads like this: (dose: 0.08 mg/kg/injection, schedule: Q01DX010 (ip), vehicle: carboxymethylcellulose (CMC)) 99 % of control; (dose: 0.16 mg/kg/injection, schedule: Q01DX010 (ip), vehicle: carboxymethylcellulose (CMC)) 107 % of control; (dose: 0.63 mg/kg/injection, schedule: Q01DX010 (ip), vehicle: carboxymethylcellulose (CMC)) 79 % of control; (dose: 1.25 mg/kg/injection, schedule: Q01DX010 (ip), vehicle: carboxymethylcellulose (CMC)) 9 % of control.

For the origin of these results see PubChem BioAssay AID332 (DTP/NCI, 2004).
